In ChEMBL document CHEMBL1147248, “A new acylated oleanane triterpenoid from Couepia polyandra that inhibits the lyase activity of DNA polymerase beta” (J Nat Prod, 2003):

Molecular target: DNA polymerase beta (Homo sapiens, UniProt P06746)
Experiment: Inhibition of DNA polymerase beta lyase activity by deoxyribose phosphate excision assay

Row | Compound | IC50
1 | CC[C@H](/C=C/[C@@H](C)[C@H]1CC[C@H]2[C@@H]3CC=C4C[C@@H](O)CC[C@]4(C)[C@H]3CC[C@]12C)C(C)C [STIGMASTEROL] | 43.4 µM
2 | CC(=O)OC[C@@]1(C)[C@@H]2CC[C@]3(C)[C@H](CC=C4[C@@H]5CC(C)(C)CC[C@]5(C(=O)O)[C@@H](OC(C)=O)C[C@]43C)[C@@]2(C)CC[C@@H]1OC(C)=O | 13 µM
3 | CC[C@H](CC[C@@H](C)[C@H]1CC[C@H]2[C@@H]3CC=C4C[C@@H](O)CC[C@]4(C)[C@H]3CC[C@]12C)C(C)C [BETA-SITOSTEROL] | 26.3 µM
4 | CC1(C)CC[C@]2(C(=O)O)CC[C@]3(C)C(=CC[C@@H]4[C@@]5(C)CC[C@H](O)C(C)(C)[C@@H]5CC[C@]43C)[C@@H]2C1 [OLEANOLIC_ACID] | 8.8 µM
